{"source": "patent US20180110824A1", "about": "“Macrocyclic Modulators of the Ghrelin Receptor” (Ocera Therapeutics, Inc., priority 2016, published 2018)", "key": {"[1]": {"system": "rat model of post-operative ileus (POI)", "assay": "Gastric emptying and intestinal transit in rat model of postoperative ileus", "assay_type": "in vivo", "from_the_text": "This clinically relevant model for POI is adapted from that of […].; Simmons, R. L.; Bauer, A. J. Surgical manipulation of the gut elicits an intestinal muscularis inflammatory response resulting in postsurgical ileus. Ann. Surg. 1998, 228, 652-663.) Other known models can also be used to study the effect of compounds of the invention. […] Rat, Sprague-Dawley, male, 300 g. • 2. Fasted O/N prior to study. • 1. Isofluorane anaesthesia under sterile conditions. • 2. Midline abdominal incision. • 3. Intestines and caecum were eviscerated and kept moist with saline. • 4. the intestines and caecum were manipulated along its entire length with moist cotton applicators analogous to the 'running of the bowel' in the clinical setting. This procedure was timed to last for 10 min. • 5. Intestines were gently replaced into the abdomen and the abdominal wound was stitched closed under sterile conditions. • 1. Rat was allowed to recover from isofluorane anaesthesia. • 2. Test compounds (or vehicle) were administered intravenously via previously implanted jugular catheter. • 3. Immediate intragastric gavage of methylcellulose (2%) labeled with radioactive ^99mTc, T=0. • 1. At t=15 min, animal was euthanized with CO2. • 2. Stomach and 10 cm sections along the small intestine were immediately ligated, cut and placed in tubes for measuring of ^99mTc in gamma counter. • 3. Stomach emptying and small intestinal transit were measured by calculation of the geometric mean. Geometric mean=Σ(% total radioactivity×number of segment)/100 • 1. Model adapted from Kälff et al. (1998), Ann Surg 228:652-63. • 2. Rats (male, Sprague-Dawley, 250-300 g) were implanted with jugular vein catheters to accommodate dosing of test articles. • 3. Rats were fasted O/N, anesthetized with isofluorane and subjected to abdominal surgery. • 4. Following an abdominal incision, the smalt intestine caecum and large intestine were eviscerated for a period of 15 min and kept moist with saline. • 5. […] Radioactivity (^99mTc) in each tissue isolate was measured as a means of measuring the transit of the meal."}, "hGHS-R1a": {"target": "T1, hGHS-R1a (Homo sapiens, UniProt Q92847)", "T1 construct": "expressed in transfected cells; host or cells: HEK293", "T1 sequence (Q92847 whole entry)": "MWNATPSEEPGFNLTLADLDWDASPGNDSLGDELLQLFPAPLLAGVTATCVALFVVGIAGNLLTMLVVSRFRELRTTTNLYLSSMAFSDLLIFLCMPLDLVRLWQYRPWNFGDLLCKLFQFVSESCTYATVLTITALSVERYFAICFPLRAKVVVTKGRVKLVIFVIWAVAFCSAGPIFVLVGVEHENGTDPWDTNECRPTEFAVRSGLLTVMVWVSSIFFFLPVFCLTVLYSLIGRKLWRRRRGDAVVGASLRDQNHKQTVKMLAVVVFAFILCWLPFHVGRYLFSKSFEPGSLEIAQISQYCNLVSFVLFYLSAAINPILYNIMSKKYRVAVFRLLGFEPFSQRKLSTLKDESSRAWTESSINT", "assay": "hGHS-R1a receptor agonism and desensitization by FLIPR in HEK293 cells", "assay_type": "cell-based", "protocol": "• 1. Studies by FLIPR (Fluorometric Imaging Plate Reader, Molecular Devices). • 2. Assay performed on HEK293 cells expressing hGHS-R1a. • 3. […] A DC50 value is calculated."}, "[2]": {"system": "gastric emptying in fasted rats", "assay": "Gastric emptying in fasted rats (phenol red methylcellulose meal)", "assay_type": "in vivo, rat", "settings": "i.v.", "protocol": "To examine the effects of compounds of the invention in a model for gastroparesis, compounds were evaluated for possible effects on gastric emptying in fasted rats.\nGHRP-6 and test samples were dissolved in vehicle of 9% HPBCD/0.9% NaCl. Immediately following oral administration of methylcellulose (2%) containing phenol red (0.05%) (2 mL/rat), test substances or vehicle (9% HPBCD/0.9% NaCl) were each administered intravenously (i.v.) at a dosing volume of 5 mL/kg.\nMale Wistar rats were provided by LASCO (A Charles River Licensee Corporation, Taiwan). Space allocation for 6 animals was 45×23×15 cm. Animals were housed in APEC® cages and maintained in a controlled temperature (22° C.-24° C.) and humidity (60% -80%) environment with 12 h light, 12 h dark cycles for at least one week in the laboratory prior to being used. Free access to standard lab chow for rats (Lab Diet, Rodent Diet, PMI Nutrition International, USA) and tap water was granted. All aspects of this work including housing, experimentation and disposal of animals were performed in general accordance with the Guide for the Care and Use of Laboratory Animals (National Academy Press, Washington, D.C., 1996).\nTest substances were each administered intravenously to a group of 5 O/N-fasted Wistar derived male rats weighing 200±20 g immediately after methylcellulose (2%) containing phenol red (0.05%) was administered orally at 2 mL/animal. The animals were then sacrificed 15 minutes later. The stomach was immediately removed, homogenized in 0.1 N NaOH (5 mL) and centrifuged. Following protein precipitation by 20% trichloroacetic acid (0.5 mL)and re-alkalization of the supernatant with 0.1 N NaOH, total phenol red remaining in the stomach was determined by a colorimetric method at 560 nm. A 30 percent or more (≥30%) increase in gastric emptying, detected as the decrease in phenol red concentration in the stomach relative to the vehicle control group, is considered significant.\n• 1. Overnight-fasted rats (male Wistar, ˜200 g, N=5/group) were given a meal of methylcellulose (2%) by intragastric gavage. The meal was labeled with phenol red (0.05%). • 2. […] Animals were sacrificed 15 minutes later; the stomach was immediately removed and homogenized in 0.1 N NaOH and centrifuged. • 4. Total phenol red remaining in the stomach was quantified by a colorimetric method at 560 nm. • 5. A >30% increase in gastric emptying, detected based on the phenol red concentration in comparison to the control group, is considered significant."}}, "data": [{"smiles": "CC1C(=O)NC(Cc2ccc(F)cc2)C(=O)NCCCc2ccccc2O[C@H](C)CNC(C2CC2)C(=O)N1C", "note": "(stereo partly shown) [compound 298]", "values": [{"measurement": "promotion of GI transit (geometric center of the meal) vs POI+vehicle", "setting": "[1]; 100 μg/kg (i.v.)", "result": 2.7, "unit": "×"}, {"measurement": "effect on postoperative ileus vs POI+vehicle treated rats", "setting": "[1]; 100 μg/kg i.v., n=5, FIG. 8", "result": "significantly improves postoperative ileus"}, {"measurement": "gastric emptying and intestinal transit in POI rats", "setting": "[1]; 100 and 300 μg/kg (i.v.)", "result": "significantly increased gastric emptying and intestinal transit"}, {"measurement": "desensitization potency lower than other ghrelin agonists (ghrelin peptide, capromorelin)", "setting": "hGHS-R1a; FIG. 13C", "result": "~10", "unit": "fold"}, {"measurement": "DC50 value less potent than the EC50 value", "setting": "hGHS-R1a; FLIPR, HEK293", "result": "> 6", "unit": "fold"}, {"measurement": "agonist type", "setting": "hGHS-R1a; FLIPR, HEK293", "result": "full agonist"}, {"measurement": "EC50", "setting": "hGHS-R1a; FLIPR, HEK293 cells expressing hGHS-R1a, FIG. 13A", "result": 0.005, "unit": "µM"}, {"measurement": "DC50", "setting": "hGHS-R1a; read-out: DC50 (pre-treatment concentration that desensitizes the ghrelin EC100 response by 50%), 3 minutes pre-treatment, FLIPR, HEK293, FIG. 13B", "result": 0.032, "unit": "µM"}, {"measurement": "gastric emptying of a meal in naïve rat", "setting": "[2]; FIGS. 14A and 14B", "result": "caused significant gastric emptying in a dose-dependent manner"}, {"measurement": "potency superior to metoclopramide in gastric emptying", "setting": "[2]; naïve rats, FIG. 14B", "result": "~100", "unit": "fold"}]}]}
